pEC50: −log10 of the molar value. Values after ≈ are worked out from the molar mass of the structure shown.
Key:
[1] = Solubility in water by solution precipitation method (HPLC); format: physicochemical; conditions: water (2% DMSO), kinetic from dmso stock, from 10 mM DMSO solution, 60 minutes stirring at room temperature, compounds of the present invention
Protocol: For solubility in water, the solubility of a compound in water was determined by a solution precipitation method.
For an HPLC system, Agilent HPLC 1100 system was used. […] For a shaker, Microincubator M-36 (Taitec) was used. For a plate, a 96-deep well plate (Nunc. 260252) was used. For a well cap, Pre-Slit Well Cap for 96 Well PP (NALGENE. 276011) was used. For a filtration plate, MultiScreen Solubility (Millipore; MSSLBPC10) was used. For dispensation, an 8-channel electronic multipipette, Biohit Proline (Biohit), and a 96-well automatic pipetting device, Biomeck 2000 (Biomeck) were used. For a reagent used, a pure solvent for DMSO ultraviolet absorption spectrum (Dojindo 349-01025) and water (MiliQ water, manufactured by Millipore).
For a DMSO solution, a sample was prepared with DMSO to be precisely 10 mM.
Precise dispensation of 10 μL of a DMSO solution into each well of a 96-well plate was performed. Following addition of 490 μL of water to each of the wells and plate-sealing with 96-well Cap (Agilent No. 5042-1389), intense stirring processing of the plate was performed for 60 minutes at room temperature on a shaker. Subsequently, 200 μL of a treatment sample was added to a plate for centrifugal filtration, and centrifugal filtration of the sample was performed to obtain a filtrate. A sample solution was made by adding 200 μl, of a 50% aqueous acetonitrile solution to the provided filtrate.
Precise dispensation of 10 μL of a DMSO solution into each well of a 96-well plate was performed.
Detection was performed using a multi-wavelength detector (190-370 nm). For a column, the above-mentioned column was used at 40° C. A flow rate was set at 1.2 ml/min, and an amount of an injected sample at 20 μL. For a moving phase, a 0.1% aqueous phosphoric acid solution as a liquid A and acetonitrile as a liquid B were used to carry out analyses in accordance with a time schedule described below.
For the analyses, the data of UV 275 nm were adopted. […] Using the calibration curve, regression calculation of concentrations in water was carried out from Area of sample solutions (water).

[2] = biological target: T1, recombinant human liver GK (Homo sapiens, UniProt P35557); assay: Glucokinase-activating effect (Thio-NADH coupled G6PDH assay); format: biochemical; conditions: final glucose concentration 2.5 mM, 30° C.; for Emax: OD level of DMSO control = 100%
T1 construct: made in house; host or cells: E. coli
T1 sequence (P35557 1-466 isoform P35557-2): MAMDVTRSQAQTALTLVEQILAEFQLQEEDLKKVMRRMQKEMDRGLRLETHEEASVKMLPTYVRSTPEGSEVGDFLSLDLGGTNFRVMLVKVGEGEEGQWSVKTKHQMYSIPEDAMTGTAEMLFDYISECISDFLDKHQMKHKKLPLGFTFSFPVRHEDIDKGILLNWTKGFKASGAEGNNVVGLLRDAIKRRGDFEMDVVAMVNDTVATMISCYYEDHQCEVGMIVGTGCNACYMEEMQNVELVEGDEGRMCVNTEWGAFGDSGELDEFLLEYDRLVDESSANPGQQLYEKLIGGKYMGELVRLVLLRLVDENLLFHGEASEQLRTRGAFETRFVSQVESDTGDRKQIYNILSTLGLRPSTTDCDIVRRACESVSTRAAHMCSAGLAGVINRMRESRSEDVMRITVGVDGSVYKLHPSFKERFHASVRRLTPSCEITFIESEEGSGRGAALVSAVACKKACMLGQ
Description: The excellent glucokinase-activating effect of the compounds of formula (I) may be determined by a method described in literature (for example, Diabetes, Vol. 45, pp. 1671-1677, 1996), or in accordance with it.
The glucokinase activity may be determined not by directly measuring glucose-6-phosphate but by measuring the level of Thio-NADH, which is produced when a reporter enzyme, glucose-6-phosphate dehydrogenase produces phosphogluconolactone from glucose-6-phosphate, and based on the level, the degree of glucokinase activation by the compound tested may be determined.
In this assay, used was a recombinant human liver GK, which was expressed by E. coli as a FLAG fusion protein therein and was purified by […] M2 AFFINITY GEL (Sigma).
Using a flat-bottomed 96-well plate, the assay was carried out at 30° C. 69 μl of an assay buffer (25 mM Hepes Buffer/pH=7.2, 2 mM MgCl2, 1 mM ATP, 0.5 mM TNAD, 1 mM dithiothreitol) was put into the plate, and 1 μl of a DMSO solution of the compound or DMSO alone as a control was added thereto. Next, 20 μl of an enzyme mixture (FLAG-GK, 20 U/ml G6PDH) cooled in ice was added to it, and 10 μl of a substrate, 25 mM glucose was added to it, and the reaction was initiated (final glucose concentration=2.5 mM).
After the start of the reaction, the increase in the absorbance at 405 nm was measured for 12 minutes at intervals of 30 seconds, and the increase for the first 5 minutes was used for assessing the compound tested. FLAG-GK was added so that the absorbance increase after 5 minutes in the presence of 1% DMSO could be from 0.04 to 0.06.
The OD level of the DMSO control was set as 100%; and the OD level of the test compound at different concentrations was determined. From the OD level at each concentration, Emax (%) and EC50 (μM) were computed and used as the index of the GK-activating potency of the compound.

Row | Structure (SMILES) | solubility at 60 min [1] | pEC50 [2] | Emax [2]
1 | CC(=O)N1CCC[C@@H]1c1cc2[nH]c(-c3cnccn3)cc2cc1Oc1ccc(OCCO)nc1 [Example 12, 6-[(R)-1-acetylpyrrolidin-2-yl]-5-[6-(2-hydroxyethoxy)pyridin-3-yloxy]-2-(pyrazin-2-yl)-1H-indole] | 128 µM (≈ 58.8 µg/mL) | – | –
2 | CC(=O)N1CCC[C@@H]1c1cc2[nH]c(-c3cnccn3)cc2cc1Oc1ccc(CO)nc1 [Example 6, 6-[(R)-1-acetylpyrrolidin-2-yl]-5-(6-hydroxymethylpyridin-3-yloxy)-2-(pyrazin-2-yl)-1H-indole] | > 170 µM | – | –
3 | CC(=O)N1CCC[C@@H]1c1cc2[nH]c(-c3cnccn3)cc2cc1Oc1ccc(S(C)(=O)=O)nc1 [Example 2] | > 170 µM | 7.05 | –
4 | CC(=O)N1CCC[C@@H]1c1cc2[nH]c(-c3cnc(CO)cn3)cc2cc1Oc1ccc(S(C)(=O)=O)nc1 [Example 10, 6-[(R)-1-acetylpyrrolidin-2-yl]-2-(5-hydroxymethylpyrazin-2-yl)-5-(6-methylsulfonylpyridin-3-yloxy)-1H-indole] | 95.1 µM (≈ 48.3 µg/mL) | 6.96 | –
5 | CC(=O)N1CCC[C@@H]1c1cc2[nH]c(-c3cnc(C)cn3)cc2cc1Oc1ccc(CO)nc1 [Example 7, 6-[(R)-1-acetylpyrrolidin-2-yl]-5-(6-hydroxymethylpyridin-3-yloxy)-2-(5-methylpyrazin-2-yl)-1H-indole] | > 170 µM | 6.92 | –
6 | CNC(=O)c1ccc(-c2cc3cc(Oc4ccc(S(C)(=O)=O)nc4)c([C@H]4CCCN4C(C)=O)cc3[nH]2)nc1 [Example 5, 6-[(R)-1-acetylpyrrolidin-2-yl]-2-[5-(N-methylcarbamoyl)pyridin-2-yl]-5-(6-methylsulfonylpyridin-3-yloxy)-1H-indole] | 112 µM (≈ 59.5 µg/mL) | – | –
7 | CC(=O)N1CCC[C@@H]1c1cc2[nH]c(-c3ccccn3)cc2cc1Oc1ccc(OCCO)nc1 [Example 11, 6-[(R)-1-acetylpyrrolidin-2-yl]-5-[6-(2-hydroxyethoxy)pyridin-3-yloxy]-2-(pyridin-2-yl)-1H-indole] | 48.6 µM (≈ 22.3 µg/mL) | – | –
8 | CC(=O)N1CCC[C@@H]1c1cc2[nH]c(-c3ccc(C(C)(C)O)cn3)cc2cc1Oc1ccc(CO)nc1 [Example 8, 6-[(R)-1-acetylpyrrolidin-2-yl]-2-[5-(1,1-dimethylhydroxymethyl)pyridin-2-yl]-5-(6-hydroxymethylpyridin-3-yloxy)-1H-indole] | > 170 µM | – | –

The remaining lines, values ahead:

Row | solubility at 60 min [1] | pEC50 [2] | Emax [2] | Structure (SMILES)
9 | > 170 µM | – | – | CC(=O)N1CCC[C@@H]1c1cc2[nH]c(-c3cnccn3)cc2cc1Oc1ccc(CCO)nc1 [Example 19, 6-[(R)-1-acetylpyrrolidin-2-yl]-5-[6-(2-hydroxyethyl)pyridin-3-yloxy]-2-(pyrazin-2-yl)-1H-indole]
10 | 129 µM (≈ 60.7 µg/mL) | 6.80 | 942% | CCNC(=O)c1ccc(Oc2cc3cc(-c4cnccn4)[nH]c3cc2[C@H]2CCCN2C(C)=O)cn1 [Example 26, 6-[(R)-1-acetylpyrrolidin-2-yl]-5-[6-(N-ethylcarbamoyl)pyridin-3-yloxy]-2-(pyrazin-2-yl)-1H-indole]
11 | 168 µM (≈ 79.4 µg/mL) | 6.89 | 849% | COCc1ccc(Oc2cc3cc(-c4ccc(CO)cn4)[nH]c3cc2[C@H]2CCCN2C(C)=O)cn1 [Example 15, 6-[(R)-1-acetylpyrrolidin-2-yl]-2-(5-hydroxymethylpyridin-2-yl)-5-(6-methoxymethylpyridin-3-yloxy)-1H-indole]
12 | 93.7 µM (≈ 44.4 µg/mL) | 6.64 | 995% | CC(=O)N1CCC[C@@H]1c1cc2[nH]c(-c3cnc(C)cn3)cc2cc1Oc1ccc(OCCO)nc1 [Example 13, 6-[(R)-1-acetylpyrrolidin-2-yl]-5-[6-(2-hydroxyethoxy)pyridin-3-yloxy]-2-(5-methylpyrazin-2-yl)-1H-indole]
13 | > 170 µM | 7.00 | – | CC(=O)N1CCC[C@@H]1c1cc2[nH]c(-c3cnccn3)cc2cc1Oc1ccc(C(=O)N(C)CCO)nc1 [Example 28]
14 | > 170 µM | – | – | CC(=O)N1CCC[C@@H]1c1cc2[nH]c(-c3cnc(CO)cn3)cc2cc1Oc1ccc(OCCO)nc1 [Example 14, 6-[(R)-1-acetylpyrrolidin-2-yl]-5-[6-(2-hydroxyethoxy)pyridin-3-yloxy]-2-(5-hydroxymethylpyrazin-2-yl)-1H-indole]
15 | > 170 µM | – | – | CC(=O)N1CCC[C@@H]1c1cc2[nH]c(-c3cnc(C(C)(C)O)cn3)cc2cc1Oc1ccc(C(=O)N2CCC2)nc1 [Example 21, 6-[(R)-1-acetylpyrrolidin-2-yl]-5-[6-(azetidin-1-ylcarbonyl)pyridin-3-yloxy]-2-[5-(1,1-dimethylhydroxymethyl)pyrazin-2-yl]-1H-indole]
16 | > 170 µM | – | – | CC(=O)N1CCC[C@@H]1c1cc2[nH]c(-c3cnccn3)cc2cc1Oc1ccc(C(=O)N(C)C)nc1 [Example 25, 6-[(R)-1-acetylpyrrolidin-2-yl]-5-[6-(N,N-dimethylcarbamoyl)pyridin-3-yloxy]-2-(pyrazin-2-yl)-1H-indole]
17 | 142 µM (≈ 76.6 µg/mL) | – | – | CC(=O)N1CCC[C@@H]1c1cc2[nH]c(-c3ccc(C(C)(C)O)cn3)cc2cc1Oc1ccc(C(=O)N2CCC2)nc1 [Example 24, 6-[(R)-1-acetylpyrrolidin-2-yl]-5-[6-(azetidin-1-ylcarbonyl)pyridin-3-yloxy]-2-[5-(1,1-dimethylhydroxymethyl)pyridin-2-yl]-1H-indole]
18 | 122 µM (≈ 59.1 µg/mL) | – | – | CC(=O)N1CCC[C@@H]1c1cc2[nH]c(-c3cnccn3)cc2cc1Oc1ccc(C(=O)N2CCC2)nc1 [Example 20, 6-[(R)-1-acetylpyrrolidin-2-yl]-5-[6-(azetidin-1-ylcarbonyl)pyridin-3-yloxy]-2-(pyrazin-2-yl)-1H-indole]
19 | 133 µM (≈ 58.8 µg/mL) | – | – | COCc1ccc(Oc2cc3cc(-c4ccccn4)[nH]c3cc2[C@H]2CCCN2C(C)=O)cn1 [Example 18, 6-[(R)-1-acetylpyrrolidin-2-yl]-5-(6-methoxymethylpyridin-3-yloxy)-2-(pyridin-2-yl)-1H-indole]
20 | > 170 µM | – | – | CC(=O)N1CCC[C@@H]1c1cc2[nH]c(-c3cnc(C(C)(C)O)cn3)cc2cc1Oc1ccc(S(C)(=O)=O)nc1 [Example 22, 6-[(R)-1-acetylpyrrolidin-2-yl]-2-[5-(1,1-dimethylhydroxymethyl)pyrazin-2-yl]-5-(6-methylsulfonylpyridin-3-yloxy)-1H-indole]
21 | 77.6 µM (≈ 39.7 µg/mL) | – | – | CC(=O)N1CCC[C@@H]1c1cc2[nH]c(-c3ccc(CO)cn3)cc2cc1Oc1ccc(C(=O)N2CCC2)nc1 [Example 23, 6-[(R)-1-acetylpyrrolidin-2-yl]-5-[6-(azetidin-1-ylcarbonyl)pyridin-3-yloxy]-2-(5-hydroxymethylpyridin-2-yl)-1H-indole]

Source: patent publication US8592428B2 (MSD K. K., priority 2008, dated 2013)
